Measured values published in patent EP4803513A1, “SUBSTITUTED QUINAZOLINE COMPOUND, PREPARATION METHOD THEREFOR, PHARMACEUTICAL COMBINATION THEREOF, AND USE THEREOF” (Hongyun Biotech Co., Ltd., priority 2023, dated 2025).

What was measured:
Type in all cases: cell-based
BRK-BaF3 cells = assay: Cell antiproliferative activity assay (CCK-8), BRK-BaF3; conditions: 72 h, CCK-8, 3 days incubation
How it was run: (§1)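 Growth inhibition over 3 days, with compound serially diluted 3-fold from a 10 µM top concentration. Cells seeded at 100,000 cells/mL; WT-BaF3 medium carried 10% WEHI supernatant as the IL-3 source. Viability read by CCK-8 OD450 after 2-4 h; IC50 from blank-subtracted curve fit.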

WT-BaF3 cells = assay: Cell antiproliferative activity assay (CCK-8), WT-BaF3 (broad-spectrum cytotoxicity); conditions: 72 h; WT-BaF3 cells (IL-3 supplemented), CCK-8, 3 days incubation
How it was run: as §1

T47D cells = assay: Cell antiproliferative activity assay (CCK-8), T47D; conditions: Homo sapiens, 72 h, breast cancer cell line T47D, incubation for 3 days
Method: BRK-BaF3, WT-BaF3, WEHI cell line, and breast cancer cell line T47D were cultured using RPMI 1640 Basal medium or DMEM (Dulbecco's Modified Eagle Medium) (Shanghai Peiyuan Biotechnology, L220KJ), supplemented with 10% FBS (Gibco, REF 10099-141C) and 1% P/S (Shanghai Peiyuan Biotechnology, S110JV), in an incubator (Thermo 3020) at 37°C with 5% CO2. Cell viability was above 95%. Cells were passaged at a 3:1 ratio every 3-4 days. For WT-BaF3 cells, WEHI cells were first cultured, and their culture supernatant was filtered through a 0.22 µm filter. This supernatant was added at 10% to the regular culture medium to supplement IL-3 required for WT-BaF3 cell proliferation, which served as the culture medium for WT-BaF3. For testing, cells were first collected and counted, then prepared into a cell suspension at 100,000 cells/mL and plated at 100 µL per well. Drug concentrations started from 10 µM and were serially diluted 3:1. After incubation for 3 days, 20 µL of CCK-8 detection reagent (Targetmol C005) was added to each well. After incubation for 2-4 hours, OD450 was measured using a microplate reader (Varioskan LUX, Thermo Scientific). After subtracting the blank background, the curve was fitted and the IC50 was calculated using XLfit software.
In addition, the following table exemplarily lists the IC50 values of some compounds of the present invention against T47D cells.

Row | Structure (SMILES) | IC50 (BRK-BaF3 cells) | IC50 (T47D cells) | IC50 (WT-BaF3 cells)
1 | Cc1nn(CC(C)(C)O)cc1Nc1ncc2cc(-c3cccnc3C)cc(C(C)C)c2n1 [I-57] | ≤ 20 nM | 500 to 1000 nM | 100 to 500 nM
2 | Cc1nn(CCO)cc1Nc1ncc2cc(-c3c(C)ncnc3C)cc(C3CC3)c2n1 [I-147] | ≤ 20 nM | 500 to 1000 nM | 500 to 2500 nM
3 | Cc1ccnc(F)c1-c1cc(C(C)C)c2nc(Nc3cn(CCO)nc3C)ncc2c1 [I-46] | ≤ 20 nM | ≤ 500 nM | 500 to 2500 nM
4 | Cc1nn(CCO)cc1Nc1ncc2cc(-c3cccnc3N)cc(C(C)C)c2n1 [I-27] | ≤ 20 nM | 500 to 1000 nM | 500 to 2500 nM
5 | Cc1nn(CCO)cc1Nc1ncc2cc(-c3cc(F)cnc3C)cc(C(C)C)c2n1 [I-41] | ≤ 20 nM | 500 to 1000 nM | > 2500 nM
6 | Cc1nn(CCO)cc1Nc1ncc2cc(-c3c(F)ccnc3N)cc(C(C)C)c2n1 [I-48] | ≤ 20 nM | 500 to 1000 nM | > 2500 nM
7 | Cc1ccc(C#N)cc1-c1cc(C(C)C)c2nc(Nc3cn(CCO)nc3C)ncc2c1 [I-162] | ≤ 20 nM | ≤ 500 nM | 500 to 2500 nM
8 | Cc1nn(CCO)cc1Nc1ncc2cc(-c3cc(O)ccc3F)cc(C(C)C)c2n1 [I-160] | ≤ 20 nM | ≤ 500 nM | 100 to 500 nM
9 | Cc1nn(CCO)cc1Nc1ncc2cc(-c3cncc(F)c3C)cc(C(C)C)c2n1 [I-36] | ≤ 20 nM | ≤ 500 nM | 500 to 2500 nM
10 | COc1ncncc1-c1cc(C(C)C)c2nc(Nc3cn(CCO)nc3C)ncc2c1 [I-125] | ≤ 20 nM | 500 to 1000 nM | > 2500 nM
11 | Cc1ccncc1-c1cc(C(C)C)c2nc(Nc3cn(CCO)nc3C)ncc2c1 [I-32] | ≤ 20 nM | ≤ 500 nM | 500 to 2500 nM
12 | Cc1nn(CCO)cc1Nc1ncc2cc(-c3cncnc3C)cc(C3CC3)c2n1 [I-146] | ≤ 20 nM | 500 to 1000 nM | 500 to 2500 nM
13 | Cc1nn(CCO)cc1Nc1ncc2cc(-c3c(C)n[nH]c3C)cc(C(C)C)c2n1 [I-189] | ≤ 20 nM | 500 to 1000 nM | 500 to 2500 nM
14 | Cc1nn(CCO)cc1Nc1ncc2cc(-c3c[nH]nc3C)cc(C(C)C)c2n1 [I-187] | ≤ 20 nM | ≤ 500 nM | 500 to 2500 nM
15 | CC(C)c1cc(-c2cccnc2)cc2cnc(Nc3cn(CCO)nc3Cl)nc12 [I-55] | ≤ 20 nM | ≤ 500 nM | 500 to 2500 nM
16 | Cc1nccnc1-c1cc(C(C)C)c2nc(Nc3cn(CCO)nc3Cl)ncc2c1 [I-98] | ≤ 20 nM | 500 to 1000 nM | 500 to 2500 nM
17 | Cc1nn(CCO)cc1Nc1ncc2cc(-c3ccnc(N)c3)cc(C(C)C)c2n1 [I-14] | ≤ 20 nM | 500 to 1000 nM | 500 to 2500 nM
18 | Cc1ncnc(C)c1-c1cc(C(C)C)c2nc(Nc3cnn(CCO)c3)ncc2c1 [I-140] | ≤ 20 nM | 500 to 1000 nM | 500 to 2500 nM
19 | Cc1ccnnc1-c1cc(C2CC2)c2nc(Nc3cn(CCO)nc3C)ncc2c1 [I-119] | ≤ 20 nM | 500 to 1000 nM | 500 to 2500 nM

Further lines, with some results ahead:

Row | IC50 (BRK-BaF3 cells) | IC50 (T47D cells) | Structure (SMILES) | IC50 (WT-BaF3 cells)
20 | ≤ 20 nM | ≤ 500 nM | Cc1nccnc1-c1cc(C2CC2)c2nc(Nc3cnn(CC(=O)N(C)C)c3)ncc2c1 [III-132] | 500 to 2500 nM
21 | ≤ 20 nM | ≤ 500 nM | [2H]C([2H])([2H])n1cc(Nc2ncc3cc(-c4nccnc4C)cc(C(C)C)c3n2)c(C)n1 [III-103] | 100 to 500 nM
22 | ≤ 20 nM | ≤ 500 nM | Cc1nccnc1-c1cc(C(C)C)c2nc(Nc3ccc(P(C)(C)=O)cc3)ncc2c1 [II-11] | 500 to 2500 nM
23 | ≤ 20 nM | ≤ 500 nM | [2H]C([2H])([2H])n1cc(Nc2ncc3cc(-c4cc(=O)[nH]cc4C)cc(C(C)C)c3n2)c(C)n1 [III-9] | 500 to 2500 nM
24 | ≤ 20 nM | 500 to 1000 nM | Cc1nccnc1-c1cc(C(C)C)c2nc(Nc3cn(C)nc3Cl)ncc2c1 [III-101] | 500 to 2500 nM
25 | ≤ 20 nM | ≤ 500 nM | CNc1cc(Nc2ncc3cc(-c4nccnc4C)cc(C4CC4)c3n2)ccc1P(C)(C)=O [II-77] | 100 to 500 nM
26 | 20 to 100 nM | ≤ 500 nM | COc1cc(Nc2ncc3cc(-c4nccnc4C)cc(C4CC4)c3n2)c(F)cc1P(C)(C)=O [II-70] | 500 to 2500 nM
27 | ≤ 20 nM | 500 to 1000 nM | Cc1nccnc1-c1cc(C(C)C)c2nc(Nc3cn(C)nc3C(F)F)ncc2c1 [III-102] | > 2500 nM
28 | ≤ 20 nM | ≤ 500 nM | Cc1nn(C)cc1Nc1ncc2cc(-c3cncnc3C)cc(C(C)C)c2n1 [III-92] | 100 to 500 nM
29 | ≤ 20 nM | ≤ 500 nM | COc1cc(Nc2ncc3cc(-c4cccnc4C)cc(C4CC4)c3n2)ccc1P(C)(C)=O [II-64] | 500 to 2500 nM
30 | ≤ 20 nM | 500 to 1000 nM | COc1cc(Nc2ncc3cc(-c4c(C)ncnc4C)cc(C4CC4)c3n2)ccc1P(C)(C)=O [II-62] | 100 to 500 nM
31 | ≤ 20 nM | ≤ 500 nM | Cc1nn(C)cc1Nc1ncc2cc(-c3cn(C)nc3C)cc(C(C)C)c2n1 [III-87] | 100 to 500 nM
32 | ≤ 20 nM | ≤ 500 nM | COc1cc(Nc2ncc3cc(-c4nccnc4C)cc(C(C)C)c3n2)ccc1P(C)(C)=O [II-16] | 500 to 2500 nM
33 | ≤ 20 nM | ≤ 500 nM | COc1cc(Nc2ncc3cc(-c4nccnc4C)cc(C4CC4)c3n2)ccc1P(C)(C)=O [II-33] | 100 to 500 nM
34 | ≤ 20 nM | 500 to 1000 nM | Cc1nccnc1-c1cc(C(C)C)c2nc(Nc3ccc(P(C)(C)=O)c(C)c3F)ncc2c1 [II-18] | > 2500 nM
35 | ≤ 20 nM | ≤ 500 nM | Cc1nn(C)cc1Nc1ncc2cc(-c3nccnc3C)cc(C(C)C)c2n1 [III-99] | 500 to 2500 nM
36 | ≤ 20 nM | ≤ 500 nM | COc1nc(Nc2ncc3cc(-c4nccnc4C)cc(C4CC4)c3n2)ccc1P(C)(C)=O [II-71] | 500 to 2500 nM
37 | ≤ 20 nM | ≤ 500 nM | COc1cc(Nc2ncc3cc(-c4nccnc4C)cc(C(C)C)c3n2)c(F)cc1P(C)(C)=O [II-22] | 500 to 2500 nM
38 | ≤ 20 nM | ≤ 500 nM | Cc1ccnnc1-c1cc(C(C)C)c2nc(Nc3cn(C)nc3C)ncc2c1 [III-90] | 100 to 500 nM
39 | ≤ 20 nM | 500 to 1000 nM | Cc1c[nH]c(=O)cc1-c1cc(C(C)C)c2nc(Nc3cnn(C4CCN(C)CC4)c3C)ncc2c1 [III-14] | 500 to 2500 nM
40 | ≤ 20 nM | 500 to 1000 nM | Cc1c[nH]c(=O)cc1-c1cc(C(C)C)c2nc(Nc3cn(C)nc3C(F)F)ncc2c1 [III-4] | 500 to 2500 nM
